Columns and labels:
[1] = molecular target: T1, Recombinant human α-L-iduronidase protein (Homo sapiens, UniProt P35475); assay: Differential scanning fluorimetry (DSF) thermal stabilization; format: binding; conditions: ΔTm class;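 note: Classes count stabilization of α-L-iduronidase despite the GALC label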
T1 construct: purchased R&D
T1 sequence (P35475 28-653): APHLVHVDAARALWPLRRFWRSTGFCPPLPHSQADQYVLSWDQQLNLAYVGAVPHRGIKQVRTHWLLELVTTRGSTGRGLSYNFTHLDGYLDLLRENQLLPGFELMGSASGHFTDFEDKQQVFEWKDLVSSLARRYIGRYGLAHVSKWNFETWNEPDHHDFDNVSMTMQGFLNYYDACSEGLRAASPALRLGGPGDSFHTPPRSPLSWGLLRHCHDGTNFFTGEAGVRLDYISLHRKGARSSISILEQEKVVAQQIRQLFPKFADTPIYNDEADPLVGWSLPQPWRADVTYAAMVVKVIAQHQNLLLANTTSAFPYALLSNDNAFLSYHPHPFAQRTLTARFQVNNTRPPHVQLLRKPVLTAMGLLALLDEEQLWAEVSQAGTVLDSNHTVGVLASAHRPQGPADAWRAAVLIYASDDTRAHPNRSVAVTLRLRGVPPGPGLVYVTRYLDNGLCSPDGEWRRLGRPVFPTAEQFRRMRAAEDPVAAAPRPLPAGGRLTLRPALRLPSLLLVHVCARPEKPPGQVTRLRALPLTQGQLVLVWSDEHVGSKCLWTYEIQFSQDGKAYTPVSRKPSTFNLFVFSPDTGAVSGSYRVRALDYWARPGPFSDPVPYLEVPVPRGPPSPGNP
Experimental: The capacity of Compounds of the Disclosure to stabilize α-L-iduronidase was assessed by differential scanning fluorimetry technique. The thermal denaturation of purified human native enzyme was monitored in the presence of the extrinsic fluorescent probe SYPRO Orange (Sigma-Aldrich, St. Louis, MO). The tested compounds were dissolved in 100% DMSO and diluted into the protein buffer to achieve final concentrations of 1% DMSO.
Recombinant human α-L-iduronidase protein (purchased from R&D) 12.5 µL of 1.5 µM in 100 mM Hepes 20 mM MgCl2 pH 7 (protein final concentration 0.75 µM) with Sypro Orange 10X and 12.5 µl of the different compound solutions were dispensed into 96-well PCR-plates. The intensity of SYPRO Orange fluorescence after a systematic increase of temperature was monitored in the Roche LightCycler® 480 II device (Roche Diagnostics).
The capacity to stabilize α-L-iduronidase is denoted as follows: • ΔTm GALC > 1 is shown as A; • ΔTm GALC between 0.5 and 1 is shown as B; • ΔTm GALC between 0.1 and 0.5 is shown as C; and • ΔTm GALC less than 0.1 is shown as D.

[2] = molecular target: T2, ALDURAZYME (laronidase, IDUA) (Homo sapiens, UniProt P35475); assay: Denaturation prevention assay with ALDURAZYME; format: biochemical; conditions: 30 µM compound, pH 7, 37° C.
T2 construct: purchased ALDURAZYME®
T2 sequence (P35475 26-653 limits assumed): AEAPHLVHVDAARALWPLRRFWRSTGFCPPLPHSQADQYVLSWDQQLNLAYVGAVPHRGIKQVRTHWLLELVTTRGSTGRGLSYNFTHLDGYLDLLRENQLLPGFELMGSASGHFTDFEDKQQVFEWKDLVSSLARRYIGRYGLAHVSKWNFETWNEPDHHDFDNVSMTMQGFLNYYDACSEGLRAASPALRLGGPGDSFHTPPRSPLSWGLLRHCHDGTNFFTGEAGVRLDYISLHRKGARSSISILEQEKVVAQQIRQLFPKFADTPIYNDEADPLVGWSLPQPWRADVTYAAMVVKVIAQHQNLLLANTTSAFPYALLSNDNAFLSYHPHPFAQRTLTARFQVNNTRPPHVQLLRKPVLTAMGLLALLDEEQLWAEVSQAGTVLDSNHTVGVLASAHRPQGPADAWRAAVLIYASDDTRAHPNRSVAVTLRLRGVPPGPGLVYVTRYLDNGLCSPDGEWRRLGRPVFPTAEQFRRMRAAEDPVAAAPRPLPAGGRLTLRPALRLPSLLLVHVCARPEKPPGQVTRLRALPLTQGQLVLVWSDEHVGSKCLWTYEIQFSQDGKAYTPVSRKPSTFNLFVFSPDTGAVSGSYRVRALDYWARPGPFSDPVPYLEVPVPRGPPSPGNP
Experimental: Briefly, recombinant human α-L-iduronidase protein (obtained in the Institute of Biotechnology and Biomedicine in the UAB, Bellaterra, Spain) was combined at a final concentration of 1 µM with 5X of SYPRO Orange and 30 µM of the corresponding compound in a final reaction volume of 25 µL in 100 mM Hepes 20 mM MgCl2 pH 7 buffer. Reactions were incubated at 37° C. and SYPRO Orange fluorescence intensity was monitored at the indicated time points using Glomax® Discover Microplate Reader from Promega (Madison, WI, USA).
Compounds of Examples 8, 39, 40, 54, and 72 were also tested as described above, except that ALDURAZYME® was used instead of the recombinant human α-L-iduronidase protein (obtained in the Institute of Biotechnology and Biomedicine in the UAB, Bellaterra, Spain).

SMILES	DSF Activity range ([1]; commercially available Examples 8-37)	prevention of IDUA denaturation [2]	DSF Activity range ([1]; synthetized Examples 38-94)
CCN(CC(=O)Nc1c(Cl)cccc1Cl)Cc1nc2ccsc2c(=O)[nH]1 [Example 8, N-(2,6-dichlorophenyl)-2-(ethyl((4-oxo-3,4-dihydrothieno[3,2-d]pyrimidin-2-yl)methyl)amino)acetamide]	A (ΔTm GALC > 1 is shown as A)	prevent IDUA denaturation	
Cc1csc2c(=O)[nH]c(CN(C)CC(=O)N3CCc4ccccc43)nc12 [Example 39]		prevent IDUA denaturation	B (ΔTm GALC between 0.5 and 1 is shown as B)
Cc1csc2c(=O)[nH]c(CN(C)CC(=O)N(C)c3ccc(Cl)c(Cl)c3)nc12 [Example 40, 2-(N-((3,4-dihydro-7-methyl-4-oxothieno[3,2-d]pyrimidin-2-yl)methyl)-N-methylamino)-N-(3,4-dichlorophenyl)-N-methylacetamide]		prevent IDUA denaturation	B (ΔTm GALC between 0.5 and 1 is shown as B)
CCCN(CC(=O)N(C)c1ccccc1Cl)Cc1nc2cc(C)sc2c(=O)[nH]1 [Example 54]		prevent IDUA denaturation	B (ΔTm GALC between 0.5 and 1 is shown as B)
CCN(CC(=O)N(C)c1c(Cl)cccc1Cl)Cc1nc2ccc(F)cc2c(=O)[nH]1 [Example 69, 2-(N-ethyl-N-((6-fluoro-3,4-dihydro-4-oxoquinazolin-2-yl)methyl)amino)-N-(2,6-dichlorophenyl)-N-methylacetamide]			C (ΔTm GALC between 0.1 and 0.5 is shown as C)
Cc1ccc2c(=O)[nH]c(CN(C)CC(=O)N(C)c3ccccc3Cl)nc2c1 [Example 70, 2-(N-((3,4-dihydro-7-methyl-4-oxoquinazolin-2-yl)methyl)-N-methylamino)-N-(2-chlorophenyl)-N-methylacetamide]			B (ΔTm GALC between 0.5 and 1 is shown as B)
CN(CC(=O)N1Cc2ccccc2C1)Cc1nc2cc(F)ccc2c(=O)[nH]1 [Example 71, 7-fluoro-2-(((2-(isoindolin-2-yl)-2-oxoethyl)(methyl)amino)methyl)quinazolin-4(3H)-one]			A (ΔTm GALC > 1 is shown as A)
CCN(CC(=O)N(C)c1c(Cl)cccc1Cl)Cc1nc2cc(F)ccc2c(=O)[nH]1 [Example 73, 2-(N-ethyl-N-((7-fluoro-3,4-dihydro-4-oxoquinazolin-2-yl)methyl)amino)-N-(2,6-dichlorophenyl)-N-methylacetamide]			C (ΔTm GALC between 0.1 and 0.5 is shown as C)
CN(CC(=O)N(C)c1cccc(F)c1)Cc1nc2ccc(F)cc2c(=O)[nH]1 [Example 74]			B (ΔTm GALC between 0.5 and 1 is shown as B)
CN(CC(=O)N(C)c1ccc(Cl)c(Cl)c1)Cc1nc2cc(F)ccc2c(=O)[nH]1 [Example 75]			B (ΔTm GALC between 0.5 and 1 is shown as B)
CCCN(CC(=O)N(C)c1ccccc1Cl)Cc1nc2cc(F)ccc2c(=O)[nH]1 [Example 76]			D (ΔTm GALC less than 0.1 is shown as D)
CN(CC(=O)N(C)c1cccc(F)c1)Cc1nc2cc(F)ccc2c(=O)[nH]1 [Example 77]			C (ΔTm GALC between 0.1 and 0.5 is shown as C)
Cc1ccc2nc(CN(CC(=O)N(C)c3ccccc3Cl)C3CC3)[nH]c(=O)c2c1 [Example 78, 2-(N-cyclopropyl-N-((3,4-dihydro-6-methyl-4-oxoquinazolin-2-yl)methyl)amino)-N-(2-chlorophenyl)-N-methylacetamide]			D (ΔTm GALC less than 0.1 is shown as D)
CCN(CC(=O)N(C)c1ccccc1Cl)Cc1nc2ccc(C)cc2c(=O)[nH]1 [Example 79]			C (ΔTm GALC between 0.1 and 0.5 is shown as C)
CCCN(CC(=O)N(C)c1ccccc1Cl)Cc1nc2ccc(C)cc2c(=O)[nH]1 [Example 80]			B (ΔTm GALC between 0.5 and 1 is shown as B)
Cc1ccc2nc(CN(C)CC(=O)N3CCc4ccccc43)[nH]c(=O)c2c1 [Example 81]			C (ΔTm GALC between 0.1 and 0.5 is shown as C)
Cc1ccc2nc(CN(C)CC(=O)N(C)c3cccc(F)c3)[nH]c(=O)c2c1 [Example 82]			B (ΔTm GALC between 0.5 and 1 is shown as B)
Cc1ccc2c(=O)[nH]c(CN(CC(=O)N(C)c3ccccc3Cl)C3CC3)nc2c1 [Example 83]			D (ΔTm GALC less than 0.1 is shown as D)
CCN(CC(=O)N(C)c1ccccc1Cl)Cc1nc2cc(C)ccc2c(=O)[nH]1 [Example 84]			C (ΔTm GALC between 0.1 and 0.5 is shown as C)
CCCN(CC(=O)N(C)c1ccccc1Cl)Cc1nc2cc(C)ccc2c(=O)[nH]1 [Example 85]			B (ΔTm GALC between 0.5 and 1 is shown as B)
Cc1ccc2c(=O)[nH]c(CN(C)CC(=O)N3CCc4ccccc43)nc2c1 [Example 86]			D (ΔTm GALC less than 0.1 is shown as D)
Cc1ccc2c(=O)[nH]c(CN(C)CC(=O)N(C)c3cccc(F)c3)nc2c1 [Example 87, 2-(N-((3,4-dihydro-7-methyl-4-oxoquinazolin-2-yl)methyl)-N-methylamino)-N-(3-fluorophenyl)-N-methylacetamide]			D (ΔTm GALC less than 0.1 is shown as D)
Cc1ccc2c(=O)[nH]c(CN(C)CC(=O)N(C)c3ccc(Cl)c(Cl)c3)nc2c1 [Example 88, 2-(N-((3,4-dihydro-7-methyl-4-oxoquinazolin-2-yl)methyl)-N-methylamino)-N-(3,4-dichlorophenyl)-N-methylacetamide]			B (ΔTm GALC between 0.5 and 1 is shown as B)
Cc1ccc2nc(CN(C)CC(=O)N(C)c3ccc(Cl)c(Cl)c3)[nH]c(=O)c2c1 [Example 89, 2-(N-((3,4-dihydro-6-methyl-4-oxoquinazolin-2-yl)methyl)-N-methylamino)-N-(3,4-dichlorophenyl)-N-methylacetamide]			B (ΔTm GALC between 0.5 and 1 is shown as B)
CN(CC(=O)N1Cc2ccccc2C1)Cc1nc2c(cnn2C)c(=O)[nH]1 [Example 90]			C (ΔTm GALC between 0.1 and 0.5 is shown as C)
CN(CC(=O)N1CCc2ccccc21)Cc1nc2c(cnn2C)c(=O)[nH]1 [Example 91]			B (ΔTm GALC between 0.5 and 1 is shown as B)
CN(CC(=O)N(C)c1ccccc1Cl)Cc1nc2c(cnn2C)c(=O)[nH]1 [Example 92]			B (ΔTm GALC between 0.5 and 1 is shown as B)
CCN(CC(=O)N(C)c1c(Cl)cccc1Cl)Cc1nc2c(cnn2C)c(=O)[nH]1 [Example 93, 2-(N-ethyl-N-((4,5-dihydro-l-methyl-4-oxo-1H-pyrazolo[3,4-d]pylimidin-6-yl)methyl)amino)-N-(2,6-dichlorophenyl)-N-methylacetamide]			C (ΔTm GALC between 0.1 and 0.5 is shown as C)
CN(CC(=O)N(C)c1cccc(F)c1)Cc1nc2c(cnn2C)c(=O)[nH]1 [Example 94]			B (ΔTm GALC between 0.5 and 1 is shown as B)

From patent US20230140216A1, “COMBINATION THERAPY FOR TREATING MPS1” (GAIN THERAPEUTICS SA, priority 2020, published 2023)
